The source of these data is ChEMBL document CHEMBL3044787, “Carboxylesterase of the Rice Stem Borer, Chilo suppressalis WALKER (Lepidoptera: Pyralidae), Responsible for Fenitrothion Resistance as a Sequestering Protein” (J Pestic Sci, 1996).

The nature of series [1]: Binding affinity to carboxylesterase in organophosphate-resistant Chilo suppressalis (rice stem borer) midgut soluble fraction assessed as inhibition of [14C]fenitroxon-sequestering activity at 10 umol/ml. As to conditions: probe [14C]fenitroxon; call rule not given here.
The subject of series [2] is Chilo suppressalis. As to the kind of experiment: Insecticidal activity against wild-type Chilo suppressalis (rice stem borer) fifth-instar larvae assessed as mortality after 24 hr. Format: functional.
Series [3] concerns Chilo suppressalis. As to the kind of experiment: Insecticidal activity against organophosphate-resistant Chilo suppressalis (rice stem borer) fifth-instar larvae assessed as mortality after 24 hr. Format: functional.
Series [4] in a line: Drug uptake in cuticle/muscle of wild-type Chilo suppressalis (rice stem borer) fifth-instar larvae assessed per mg protein by liquid scintillation counting. Format: ADME.
Series [5] concerns Malpighian tubule. As to the kind of experiment: Drug uptake in Malpighian tubules of organophosphate-resistant Chilo suppressalis (rice stem borer) fifth-instar larvae assessed per mg protein by liquid scintillation counting. Format: ADME.
In series [6] the test system is Malpighian tubule. The series can be described thus: Drug uptake in Malpighian tubules of wild-type Chilo suppressalis (rice stem borer) fifth-instar larvae assessed per mg protein by liquid scintillation counting. Format: ADME.
Series [7] deals with Midgut. As to the kind of experiment: Drug uptake in midgut of organophosphate-resistant Chilo suppressalis (rice stem borer) fifth-instar larvae assessed per mg protein by liquid scintillation counting. Format: ADME, tissue-based.
Series [8] has as its system Fat body. As to the kind of experiment: Drug uptake in fat body of wild-type Chilo suppressalis (rice stem borer) fifth-instar larvae assessed per mg protein by liquid scintillation counting. Format: ADME.
Series [9] relates to Midgut. The series can be described thus: Drug uptake in midgut of wild-type Chilo suppressalis (rice stem borer) fifth-instar larvae assessed per mg protein by liquid scintillation counting. Format: ADME, tissue-based.
In series [10] the test system is Haemolymph. The series can be described thus: Drug uptake in haemolymph of organophosphate-resistant Chilo suppressalis (rice stem borer) fifth-instar larvae assessed per mg protein by liquid scintillation counting. Format: ADME.
For series [11], the system named is Fat body. The series can be described thus: Drug uptake in fat body of organophosphate-resistant Chilo suppressalis (rice stem borer) fifth-instar larvae assessed per mg protein by liquid scintillation counting. Format: ADME.
Series [12] in a line: Drug uptake in cuticle/muscle of organophosphate-resistant Chilo suppressalis (rice stem borer) fifth-instar larvae assessed per mg protein by liquid scintillation counting. Format: ADME.
Series [13] has as its system Haemolymph. The series can be described thus: Drug uptake in haemolymph of wild-type Chilo suppressalis (rice stem borer) fifth-instar larvae assessed per mg protein by liquid scintillation counting. Format: ADME.
The target in series [14] is T1, Carboxylesterase (Loxostege sticticalis, UniProt B3TNN2).
T1 sequence (B3TNN2 whole entry): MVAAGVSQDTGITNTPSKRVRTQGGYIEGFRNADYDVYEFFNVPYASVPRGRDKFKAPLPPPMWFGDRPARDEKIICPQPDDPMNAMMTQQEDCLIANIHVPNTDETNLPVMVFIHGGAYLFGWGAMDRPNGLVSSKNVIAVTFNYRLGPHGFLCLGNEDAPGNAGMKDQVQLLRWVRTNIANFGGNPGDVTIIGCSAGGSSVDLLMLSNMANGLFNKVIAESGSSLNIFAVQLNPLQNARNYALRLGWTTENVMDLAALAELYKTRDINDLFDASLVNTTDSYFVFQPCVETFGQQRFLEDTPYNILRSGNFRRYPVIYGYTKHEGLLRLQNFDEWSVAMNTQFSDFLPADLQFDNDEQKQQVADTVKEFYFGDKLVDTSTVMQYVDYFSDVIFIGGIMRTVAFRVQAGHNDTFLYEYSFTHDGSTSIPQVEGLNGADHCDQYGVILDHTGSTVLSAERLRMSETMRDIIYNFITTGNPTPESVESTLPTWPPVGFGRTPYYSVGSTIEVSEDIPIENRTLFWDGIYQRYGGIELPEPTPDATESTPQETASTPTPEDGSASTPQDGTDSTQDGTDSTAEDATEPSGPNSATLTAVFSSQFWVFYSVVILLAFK
As to the kind of experiment: Inhibition of carboxylesterase major isoform in organophosphate-resistant Chilo suppressalis (rice stem borer) midgut soluble fraction at 15 ng.

SMILES strings stand for the structures.

In general, inhibition refers to the change of the read-out against control, counted positive when it falls. Broadly, the LD50 is the dose expected to kill half of the subjects tested.

Regarding `CC(=O)Oc1cccc2ccccc12` [ALPHA-NAPHTHYLACETATE], the inhibition at 10 umol/ml in series [1] came to 61.8%.

As to `COP(=S)(OC)Oc1ccc([N+](=O)[O-])c(C)c1` [FENITROTHION], the 50% lethal dose (LD50) is 2.42 mg/kg in [2] and 77.3 mg/kg in series [3].

Turning to `COP(=O)(OC)Oc1ccc([N+](=O)[O-])c(C)c1` [FENITROXON], the Drug uptake in series [4] was found to be 0.044 nmol/h; in series [5], 2.1 nmol/h; in [6], 0.24 nmol/h; in series [7] it was 1.5 nmol/h; in series [8], 0.052 nmol/h; in [9], 0.22 nmol/h. Besides, the Drug uptake in series [10] came out at 0.1 nmol/h; in [11], 0.35 nmol/h; in [12], 0.24 nmol/h; in [13], 0.042 nmol/h. The “inhibition (INH)” value in series [14] is reported as “Active”.
